# From publication PMC8329300, “X-ray crystallography reveals molecular recognition mechanism for sugar binding in a melibiose transporter MelB” (Communications Biology, 2021)
# “And” between values parts separate entries of the source, which are not always exact repeats. Equal entries are not always repeated.
# Legend:
# [1] = molecular target: T1, D59C MelBSt (Salmonella typhimurium, UniProt P30878, D59C); experiment: Trp→dansyl galactoside (D2G) FRET time trace and IC50 of D2G displacement (D59C); format: binding
# T1 construct: Cys scanning mutagenesis for the full-length MelBSt; His10 (C); made in house; host or cells: E. coli DW2
# T1 sequence (P30878 whole entry D59C): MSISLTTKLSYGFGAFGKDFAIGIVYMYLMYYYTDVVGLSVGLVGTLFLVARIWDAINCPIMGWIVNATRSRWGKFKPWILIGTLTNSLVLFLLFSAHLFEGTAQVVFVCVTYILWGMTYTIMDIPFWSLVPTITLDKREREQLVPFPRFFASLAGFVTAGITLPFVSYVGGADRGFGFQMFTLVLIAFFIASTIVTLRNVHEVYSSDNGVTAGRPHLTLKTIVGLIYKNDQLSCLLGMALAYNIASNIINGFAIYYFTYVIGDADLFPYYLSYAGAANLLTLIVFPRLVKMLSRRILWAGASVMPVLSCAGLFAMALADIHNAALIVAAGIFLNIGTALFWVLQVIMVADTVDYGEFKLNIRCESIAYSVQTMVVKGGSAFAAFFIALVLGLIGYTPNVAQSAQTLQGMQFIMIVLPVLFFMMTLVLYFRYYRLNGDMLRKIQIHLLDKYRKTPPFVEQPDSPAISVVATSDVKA
# Protocol: Fig. 1 Functional characterizations. a [^3H] Melibiose transport time course with intact cells. […] Inset, melibiose fermentation assay. Transformants with DW2 strain were plated on MacConkey agar plates containing 30 mM melibiose as the sole carbohydrate source and pH sensor neutral red, and incubated at 37 °C for 16–18 h before imaging. Number of tests = 3, from different batch of cells or duplicate measurements from same batch of sample. b Ligand binding by Trp→dansyl galactoside (D^2G) FRET assay. Purified proteins at 1 μM concentration in 20 mM Tris-HCl, pH 7.5, 100 mM CholCl, 10% glycerol, and 0.03% UDM were subjected to steady-state fluorescence measurements as described in Methods. On the time-trace, 1.8 μL of 1 mM D^2G at 10 μM was added into 180 μL of protein solutions at 1-min point, followed by supplying 10 μL of 5 mM DDMB or 5 mM α-NPG to displace the bound D^2G. For testing Na^+ or Li^+ binding, they are added into the solution before displacement with the second sugar. The structure of DDMB or α-NPG is shown in a chair form, and the carbon positions are labeled. Glycosidic bonds are indicated by arrows. Both are α-galactosides containing a substituent at the anomeric carbon-1. The data were from duplicate measurements.
# Steady-state fluorescence measurements were performed with an AMINCO-Bowman series 2 spectrometer with purified MelBSt at 1 μM in 20 mM Tris-HCl, pH 7.5, 100 mM CholCl, 10% glycerol, 0.03% UDM. Using an excitation wavelength at 290 nm, the emission intensity was recorded at 490 nm. On a time-trace, D^2G, NaCl or LiCl, then DDMB or α-NPG, were sequentially added into the protein solutions at a 1 min-interval. […] An identical volume of water was used for the control. The decrease in intensity after each addition of DDMB or α-NPG was corrected by the dilution effect and plotted as a function of the accumulated α-NPG concentrations or estimated DDMB concentrations. The 50% inhibitory concentration (IC50) was determined by fitting a hyperbolic function to the data (OriginPro 2020b). The final concentration of each detergent is estimated to be 234 μM, which is less than their CMC value for (DDMB, 295 μM).
# Supplementary Figure 2. Determination of DDMB binding affinity to MelBSt. (a) Titration with DDMB or a-NPG. MelBSt in 20 mM Tris-HCl, pH 7.5, 100 mM CholCl, 10% glycerol, 0.03% UDM without (1) or with 100 mM NaCl (2) were added with D2G at 10 μM at 1-min time point as indicated by triangle symbols on the Trp®dansyl FRET time trace. Starting at the 2-min of time point, DDMB or a-NPG solution was supplemented consecutively at a 1-min interval into MelBSt solution till no change in fluorescence intensity reached as indicated in star symbols. DDM and UDM were used as negative controls. 1% DDM or UDM was titrated into the mixture, The […]
# At 2-min time point, additions of galactosides were colored in pink, a-NPG in yellow, UDM in blue, DDM in light blue, water in gray traces, respectively. (b) IC50 determination. The intensity decrease at each titration were corrected by the dilution effect, and plotted as a function of the accumulated DDMB or α-NPG concentration. The 50% inhibitory concentration (IC50) was determined by fitting the data to a hyperbolic function (OriginPro 2020b). Results are presented in […]
# (1 picture or pasted object on this page, not shown here)
# [2] = molecular target: T2, WT MelBSt (Salmonella typhimurium, UniProt P30878); conditions: cited from earlier work
# T2 construct: Cys scanning mutagenesis for the full-length MelBSt; His10 (C); made in house; host or cells: E. coli DW2
# T2 sequence (P30878 whole entry): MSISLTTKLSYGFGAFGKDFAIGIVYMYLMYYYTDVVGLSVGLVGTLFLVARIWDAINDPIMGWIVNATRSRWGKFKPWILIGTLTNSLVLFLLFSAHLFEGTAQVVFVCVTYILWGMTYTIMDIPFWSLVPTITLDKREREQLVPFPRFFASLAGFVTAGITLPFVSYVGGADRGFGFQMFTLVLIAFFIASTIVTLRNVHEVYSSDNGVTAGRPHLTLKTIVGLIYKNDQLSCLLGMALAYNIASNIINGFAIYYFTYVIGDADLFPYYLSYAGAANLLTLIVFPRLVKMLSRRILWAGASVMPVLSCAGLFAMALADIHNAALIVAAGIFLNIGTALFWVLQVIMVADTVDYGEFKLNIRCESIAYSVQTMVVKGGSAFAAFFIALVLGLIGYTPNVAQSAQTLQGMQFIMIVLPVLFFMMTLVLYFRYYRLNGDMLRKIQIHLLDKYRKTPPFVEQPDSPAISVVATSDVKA
structure (smiles),measurement,setting,value
"CN(C)c1cccc2c(S(=O)(=O)NCCS[C@@H]3O[C@H](CO)[C@H](O)[C@H](O)[C@H]3O)cccc12 [D^2G, 2′-(N-dansyl)aminoalkyl-1-thio-β-D-galactopyranoside]","Trp to D2G FRET signal, Test","[1]; D59C MelBSt mutant H+, Time 1.58333",1.236 and 1.275
same,"Trp to D2G FRET signal, Test","[1]; D59C MelBSt mutant H+, Time 1.6",1.234 and 1.287
same,"Trp to D2G FRET signal, Test","[1]; D59C MelBSt mutant H+, Time 1.61667",1.243 and 1.289
same,"Trp to D2G FRET signal, Test","[1]; D59C MelBSt mutant H+, Time 1.63333",1.234 and 1.283
same,"Trp to D2G FRET signal, Test","[1]; D59C MelBSt mutant H+, Time 1.65",1.232 and 1.292
same,"Trp to D2G FRET signal, Test","[1]; D59C MelBSt mutant H+, Time 1.66667",1.262 and 1.286
same,"Trp to D2G FRET signal, Test","[1]; D59C MelBSt mutant H+, Time 1.68333",1.239 and 1.271
same,"Trp to D2G FRET signal, Test","[1]; D59C MelBSt mutant H+, Time 1.7",1.251 and 1.2854
same,"Trp to D2G FRET signal, Test","[1]; D59C MelBSt mutant H+, Time 1.71667",1.228 and 1.2851
same,"Trp to D2G FRET signal, Test","[1]; D59C MelBSt mutant H+, Time 1.73333",1.233 and 1.277
same,"Trp to D2G FRET signal, Test","[1]; D59C MelBSt mutant H+, Time 1.75",1.255 and 1.269
same,"Trp to D2G FRET signal, Test","[1]; D59C MelBSt mutant H+, Time 1.76667",1.25 and 1.265
same,"Trp to D2G FRET signal, Test","[1]; D59C MelBSt mutant H+, Time 1.78333",1.239 and 1.277
same,"Trp to D2G FRET signal, Test","[1]; D59C MelBSt mutant Li+, Time 1.58333",1.183 and 1.18 and 1.353
same,"Trp to D2G FRET signal, Test","[1]; D59C MelBSt mutant Li+, Time 1.6",1.194 and 1.191 and 1.312
same,"Trp to D2G FRET signal, Test","[1]; D59C MelBSt mutant Li+, Time 1.61667",1.182 and 1.19 and 1.349
same,"Trp to D2G FRET signal, Test","[1]; D59C MelBSt mutant Li+, Time 1.63333",1.194 and 1.172 and 1.325
same,"Trp to D2G FRET signal, Test","[1]; D59C MelBSt mutant Li+, Time 1.65",1.192 and 1.191 and 1.377
same,"Trp to D2G FRET signal, Test","[1]; D59C MelBSt mutant Li+, Time 1.66667",1.194 and 1.178 and 1.324
same,"Trp to D2G FRET signal, Test","[1]; D59C MelBSt mutant Li+, Time 1.68333",1.1972 and 1.188 and 1.334
same,"Trp to D2G FRET signal, Test","[1]; D59C MelBSt mutant Li+, Time 1.7",1.181 and 1.193 and 1.331
same,"Trp to D2G FRET signal, Test","[1]; D59C MelBSt mutant Li+, Time 1.71667",1.193 and 1.183 and 1.334
same,"Trp to D2G FRET signal, Test","[1]; D59C MelBSt mutant Li+, Time 1.73333",1.188 and 1.175 and 1.3208
same,"Trp to D2G FRET signal, Test","[1]; D59C MelBSt mutant Li+, Time 1.75",1.1972 and 1.183 and 1.3266
same,"Trp to D2G FRET signal, Test","[1]; D59C MelBSt mutant Li+, Time 1.76667",1.189 and 1.172 and 1.31
same,"Trp to D2G FRET signal, Test","[1]; D59C MelBSt mutant Na+, Time 1.58333",1.29 and 1.292 and 1.375
same,"Trp to D2G FRET signal, Test","[1]; D59C MelBSt mutant Na+, Time 1.6",1.287 and 1.293 and 1.38
same,"Trp to D2G FRET signal, Test","[1]; D59C MelBSt mutant Na+, Time 1.61667",1.293 and 1.2915 and 1.362
same,"Trp to D2G FRET signal, Test","[1]; D59C MelBSt mutant Na+, Time 1.63333",1.299 and 1.278 and 1.358
same,"Trp to D2G FRET signal, Test","[1]; D59C MelBSt mutant Na+, Time 1.65",1.272 and 1.269 and 1.372
same,"Trp to D2G FRET signal, Test","[1]; D59C MelBSt mutant Na+, Time 1.66667",1.295 and 1.266 and 1.37
same,"Trp to D2G FRET signal, Test","[1]; D59C MelBSt mutant Na+, Time 1.68333",1.287 and 1.289 and 1.378
same,"Trp to D2G FRET signal, Test","[1]; D59C MelBSt mutant Na+, Time 1.7",1.301 and 1.273 and 1.365
same,"Trp to D2G FRET signal, Test","[1]; D59C MelBSt mutant Na+, Time 1.71667",1.2912 and 1.279 and 1.361
same,"Trp to D2G FRET signal, Test","[1]; D59C MelBSt mutant Na+, Time 1.73333",1.293 and 1.29 and 1.3441
same,"Trp to D2G FRET signal, Test","[1]; D59C MelBSt mutant Na+, Time 1.75",1.291 and 1.287 and 1.358
same,"Trp to D2G FRET signal, Test","[1]; D59C MelBSt mutant Na+, Time 1.76667",1.307 and 1.279 and 1.387
same,"Trp to D2G FRET signal, Test","[1]; D59C MelBSt mutant Na+, Time 1.78333",1.304 and 1.264
same,Kd,[2],10 µM
